# Source: PubChem BioAssay (NCI)
#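 GI50 = concentration required for 50% inhibition of growth. Definition used: TGI = concentration required for complete inhibition of growth.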
# What was measured:
# Test in all cases: growth of human tumour cells (NCI), 384-well format
# COLO 205 colon = test system: COLO 205 colon
# HOP-62 NSCLC = test system: HOP-62 NSCLC
# UACC-257 melanoma = test system: UACC-257 melanoma
# NCI-H23 lung = test system: NCI-H23 lung
# A549 NSCLC = test system: A549 NSCLC
# EKVX NSCLC = test system: EKVX NSCLC
# SK-MEL-28 melanoma = test system: SK-MEL-28 melanoma
# PC-3 prostate = test system: PC-3 prostate
# MCF7 breast = test system: MCF7 breast
# MDA-MB-231 breast = test system: MDA-MB-231 breast
# HT29 colon = test system: HT29 colon
# HOP-92 NSCLC = test system: HOP-92 NSCLC
# SN12C renal = test system: SN12C renal
# BT-549 breast = test system: BT-549 breast
# HS 578T breast = test system: HS 578T breast
# UO-31 renal = test system: UO-31 renal
# M14 melanoma = test system: M14 melanoma
# SK-OV-3 ovarian = test system: SK-OV-3 ovarian
# NCI-H460 NSCLC = test system: NCI-H460 NSCLC
# NCI-H226 lung = test system: NCI-H226 lung
# IGROV1 ovarian = test system: IGROV1 ovarian
# DU-145 prostate = test system: DU-145 prostate
# OVCAR-4 ovarian = test system: OVCAR-4 ovarian
# ACHN renal = test system: ACHN renal
# T-47D breast = test system: T-47D breast
# SNB-75 CNS = test system: SNB-75 CNS
# CCRF-CEM leukemia = test system: CCRF-CEM leukemia
# SW-620 colon = test system: SW-620 colon
# OVCAR-8 ovarian = test system: OVCAR-8 ovarian
# RPMI-8226 leukemia = test system: RPMI-8226 leukemia
# LOX IMVI melanoma = test system: LOX IMVI melanoma
# SR leukemia = test system: SR leukemia
# SF-268 CNS = test system: SF-268 CNS
# MOLT-4 leukemia = test system: MOLT-4 leukemia
# MDA-MB-468 breast = test system: MDA-MB-468 breast
# CAKI-1 renal = test system: CAKI-1 renal
# HCC-2998 colon = test system: HCC-2998 colon
# HCT-15 colon = test system: HCT-15 colon
# KM12 colon = test system: KM12 colon
# SF-295 CNS = test system: SF-295 CNS
# A498 renal = test system: A498 renal
# TK-10 renal = test system: TK-10 renal
# MDA-MB-435 melanoma = test system: MDA-MB-435 melanoma
# OVCAR-5 ovarian = test system: OVCAR-5 ovarian
# SNB-19 CNS = test system: SNB-19 CNS
# OVCAR-3 ovarian = test system: OVCAR-3 ovarian
# UACC-62 melanoma = test system: UACC-62 melanoma
# MALME-3M melanoma = test system: MALME-3M melanoma
# HL-60(TB) leukemia = test system: HL-60(TB) leukemia
# NCI/ADR-RES ovarian = test system: NCI/ADR-RES ovarian
# 786-0 renal = test system: 786-0 renal
# SK-MEL-5 melanoma = test system: SK-MEL-5 melanoma
# K-562 leukemia = test system: K-562 leukemia
# RXF 393 renal = test system: RXF 393 renal
# NCI-H522 lung = test system: NCI-H522 lung
# NCI-H322M lung = test system: NCI-H322M lung
# SF-539 CNS = test system: SF-539 CNS
smiles,measurement,setting,value
CCOCCOC[C@H]1CCCN(c2ccnc3sc(C(N)=O)c(N)c23)C1,GI50,COLO 205 colon,61.6 µM
same,TGI,COLO 205 colon,> 100 µM
same,GI50,HOP-62 NSCLC,18.5 µM
same,TGI,HOP-62 NSCLC,> 100 µM
same,GI50,UACC-257 melanoma,61.1 µM
same,TGI,UACC-257 melanoma,> 100 µM
same,GI50,NCI-H23 lung,7.19 µM
same,TGI,NCI-H23 lung,> 100 µM
same,GI50,A549 NSCLC,> 100 µM
same,TGI,A549 NSCLC,> 100 µM
same,GI50,EKVX NSCLC,35.1 µM
same,TGI,EKVX NSCLC,> 100 µM
same,GI50,SK-MEL-28 melanoma,> 100 µM
same,TGI,SK-MEL-28 melanoma,> 100 µM
same,GI50,PC-3 prostate,55.1 µM
same,TGI,PC-3 prostate,> 100 µM
same,GI50,MCF7 breast,23 µM
same,TGI,MCF7 breast,> 100 µM
same,GI50,MDA-MB-231 breast,82.3 µM
same,TGI,MDA-MB-231 breast,> 100 µM
same,GI50,HT29 colon,> 100 µM
same,TGI,HT29 colon,> 100 µM
same,GI50,HOP-92 NSCLC,> 100 µM
same,TGI,HOP-92 NSCLC,> 100 µM
same,GI50,SN12C renal,> 100 µM
same,TGI,SN12C renal,> 100 µM
same,GI50,BT-549 breast,79.1 µM
same,TGI,BT-549 breast,> 100 µM
same,GI50,HS 578T breast,> 100 µM
same,TGI,HS 578T breast,> 100 µM
same,GI50,UO-31 renal,> 100 µM
same,TGI,UO-31 renal,> 100 µM
same,GI50,M14 melanoma,> 100 µM
same,TGI,M14 melanoma,> 100 µM
same,GI50,SK-OV-3 ovarian,17.6 µM
same,TGI,SK-OV-3 ovarian,> 100 µM
same,GI50,NCI-H460 NSCLC,11.4 µM
same,TGI,NCI-H460 NSCLC,> 100 µM
same,GI50,NCI-H226 lung,90.9 µM
same,TGI,NCI-H226 lung,> 100 µM
same,GI50,IGROV1 ovarian,29.6 µM
same,TGI,IGROV1 ovarian,> 100 µM
same,GI50,DU-145 prostate,> 100 µM
same,TGI,DU-145 prostate,> 100 µM
same,GI50,OVCAR-4 ovarian,34.1 µM
same,TGI,OVCAR-4 ovarian,> 100 µM
same,GI50,ACHN renal,44.9 µM
same,TGI,ACHN renal,> 100 µM
same,GI50,T-47D breast,2.23 µM
same,TGI,T-47D breast,67.4 µM
same,GI50,SNB-75 CNS,> 100 µM
same,TGI,SNB-75 CNS,> 100 µM
same,GI50,CCRF-CEM leukemia,1.43 µM
same,TGI,CCRF-CEM leukemia,11.2 µM
same,GI50,SW-620 colon,> 100 µM
same,TGI,SW-620 colon,> 100 µM
same,GI50,OVCAR-8 ovarian,15.2 µM
same,TGI,OVCAR-8 ovarian,> 100 µM
same,GI50,RPMI-8226 leukemia,0.499 µM
same,TGI,RPMI-8226 leukemia,14.4 µM
same,GI50,LOX IMVI melanoma,16.9 µM
same,TGI,LOX IMVI melanoma,> 100 µM
same,GI50,SR leukemia,1.07 µM
same,TGI,SR leukemia,3.5 µM
same,GI50,SF-268 CNS,> 100 µM
same,TGI,SF-268 CNS,> 100 µM
same,GI50,MOLT-4 leukemia,3.13 µM
same,TGI,MOLT-4 leukemia,23.1 µM
same,GI50,MDA-MB-468 breast,1.34 µM
same,TGI,MDA-MB-468 breast,7.04 µM
same,GI50,CAKI-1 renal,> 100 µM
same,TGI,CAKI-1 renal,> 100 µM
same,GI50,HCC-2998 colon,> 100 µM
same,TGI,HCC-2998 colon,> 100 µM
same,GI50,HCT-15 colon,> 100 µM
same,TGI,HCT-15 colon,> 100 µM
same,GI50,KM12 colon,46.7 µM
same,TGI,KM12 colon,> 100 µM
same,GI50,SF-295 CNS,59.3 µM
same,TGI,SF-295 CNS,> 100 µM
same,GI50,A498 renal,13.9 µM
same,TGI,A498 renal,> 100 µM
same,GI50,TK-10 renal,> 100 µM
same,TGI,TK-10 renal,> 100 µM
same,GI50,MDA-MB-435 melanoma,> 100 µM
same,TGI,MDA-MB-435 melanoma,> 100 µM
same,GI50,OVCAR-5 ovarian,> 100 µM
same,TGI,OVCAR-5 ovarian,> 100 µM
same,GI50,SNB-19 CNS,> 100 µM
same,TGI,SNB-19 CNS,> 100 µM
same,GI50,OVCAR-3 ovarian,23.8 µM
same,TGI,OVCAR-3 ovarian,> 100 µM
same,GI50,UACC-62 melanoma,35.6 µM
same,TGI,UACC-62 melanoma,> 100 µM
same,GI50,MALME-3M melanoma,> 100 µM
same,TGI,MALME-3M melanoma,> 100 µM
same,GI50,HL-60(TB) leukemia,13.5 µM
same,TGI,HL-60(TB) leukemia,63.8 µM
same,GI50,NCI/ADR-RES ovarian,3.53 µM
same,TGI,NCI/ADR-RES ovarian,27.6 µM
same,GI50,786-0 renal,43.9 µM
same,TGI,786-0 renal,> 100 µM
same,GI50,SK-MEL-5 melanoma,2.56 µM
same,TGI,SK-MEL-5 melanoma,18.1 µM
same,GI50,K-562 leukemia,4.6 µM
same,TGI,K-562 leukemia,> 100 µM
same,GI50,RXF 393 renal,12.9 µM
same,TGI,RXF 393 renal,> 100 µM
same,GI50,NCI-H522 lung,5.77 µM
same,TGI,NCI-H522 lung,> 100 µM
same,GI50,NCI-H322M lung,13.4 µM
same,TGI,NCI-H322M lung,> 100 µM
same,GI50,SF-539 CNS,> 100 µM
same,TGI,SF-539 CNS,> 100 µM
